Results from US20240108006A1, “PESTICIDALLY ACTIVE HETEROAROMATIC COMPOUNDS” (SYNGENTA CROP PROTECTION AG, priority 2021, published 2024).

Experiments:
Assay type in all cases: in vivo
[1] = system: Spodoptera littoralis; assay: Example B9: Spodoptera littoralis (Egyptian cotton leaf worm), cotton leaf discs, L1 larvae; conditions: foliar, 72 h, application rate of 200 ppm, 3 days after infestation, read-out: control in at least one of the three categories (mortality, anti-feedant effect, or growth inhibition)
Description: Example B9: Spodoptera littoralis (Egyptian Cotton Leaf Worm)
Cotton leaf discs were placed onto agar in 24-well microtiter plates and sprayed with aqueous test solutions prepared from 10,000 ppm DMSO stock solutions. After drying the leaf discs were infested with five L1 larvae. The samples were assessed for mortality, anti-feeding effect, and growth inhibition in comparison to untreated samples 3 days after infestation. Control of Spodoptera littoralis by a test sample is given when at least one of the categories mortality, anti-feedant effect, and growth inhibition is higher than the untreated sample.

[2] = system: Plutella xylostella; assay: Example B8: Plutella xylostella (diamond back moth), artificial diet 24-well, eggs; conditions: 192 h, application rate of 200 ppm, 8 days after infestation, read-out: effect in at least one of the two categories (mortality or growth inhibition)
Description: Example B8: Plutella xylostella (Diamond Back Moth)
24-well microtiter plates with artificial diet were treated with aqueous test solutions prepared from 10,000 ppm DMSO stock solutions by pipetting. After drying, Plutella eggs were pipetted through a plastic stencil onto a gel blotting paper and the plate was closed with it. The samples were assessed for mortality and growth inhibition in comparison to untreated samples 8 days after infestation.
The following compounds gave an effect of at least 80% in at least one of the two categories (mortality or growth inhibition) at an application rate of 200 ppm: […]

[3] = system: Chilo suppressalis; assay: Example B1: Chilo suppressalis (striped rice stemborer), artificial diet, L2 larvae; conditions: 144 h, application rate of 200 ppm, 6 days after infestation, read-out: control in at least one of the three categories (mortality, anti-feedant effect, or growth inhibition)
Description: Example B1: Chilo suppressalis (Striped Rice Stemborer)
24-well microtiter plates with artificial diet were treated with aqueous test solutions prepared from 10,000 ppm DMSO stock solutions by pipetting. After drying, the plates were infested with L2 larvae (6-8 per well). The samples were assessed for mortality, anti-feeding effect, and growth inhibition in comparison to untreated samples 6 days after infestation. Control of Chilo suppressalis by a test sample is given when at least one of the categories mortality, anti-feedant effect, and growth inhibition is higher than the untreated sample.

| SMILES | percent control (mortality, anti-feedant effect or growth inhibition) at 200 ppm [1] [%] | percent effect (mortality or growth inhibition) at 200 ppm [2] [%] | percent control (mortality, anti-feedant effect or growth inhibition) at 200 ppm [3] [%] |
| --- | --- | --- | --- |
| C[C@H](NC(=O)Nc1cc(OC(F)(F)C(F)F)c(Cl)cc1Cl)c1ncnn1-c1ncc(C(=O)N(C)C)s1 [Example P396, 2-[5-[(1S)-1-[[2,4-dichloro-5-(1,1,2,2-tetrafluoroethoxy)phenyl]carbamoyl-amino]ethyl]-1,2,4-triazol-1-yl]-N,N-dimethyl-thiazole-5-carboxamide] | ≥ 80 | ≥ 80 | ≥ 80 |
| CC(NC(=O)Nc1cc(C(F)(F)F)c(Cl)cc1Br)c1nccnc1-c1ncccn1 (stereo not shown) [Example P240, 1-[2-bromo-4-chloro-5-(trifluoromethyl)phenyl]-3-[1-(3-pyrimidin-2-ylpyrazin-2-yl)ethyl]urea] | ≥ 80 | ≥ 80 | ≥ 80 |
| CC(NC(=O)Nc1cnc(Br)cc1Br)c1nccnc1-n1nccn1 (stereo not shown) [Example P262, 1-(4,6-dibromo-3-pyridyl)-3-[1-[3-(triazol-2-yl)pyrazin-2-yl]ethyl]urea] | ≥ 80 | – | – |
| C[C@H](NC(=O)Nc1cc(Br)c(F)cc1F)c1ncnn1-c1ncccn1 [Example P343, 1-(5-bromo-2,4-difluoro-phenyl)-3-[(1S)-1-(2-pyrimidin-2-yl-1,2,4-triazol-3-yl)ethyl]urea] | ≥ 80 | – | ≥ 80 |
| COc1cc(F)c(F)cc1NC(=O)N[C@@H](C)c1ncnn1-c1ncccn1 [Example P383, 1-(4,5-difluoro-2-methoxy-phenyl)-3-[(1S)-1-(2-pyrimidin-2-yl-1,2,4-triazol-3-yl)ethyl]urea] | ≥ 80 | – | ≥ 80 |
| C[C@H](NC(=O)N1CCc2cc(Br)ccc21)c1ncnn1-c1ncccn1 [Example P102, 5-bromo-N-[(1S)-1-(2-pyrimidin-2-yl-1,2,4-triazol-3-yl)ethyl]indoline-1-carboxamide] | ≥ 80 | – | – |
| C[C@H](NC(=O)Nc1cc(Cl)c(OC(F)(F)C(F)Br)cc1Cl)c1ncnn1-c1ncccn1 (stereo partly drawn) [Example P197, 1-[4-(2-bromo-1,1,2-trifluoro-ethoxy)-2,5-dichloro-phenyl]-3-[(1S)-1-(2-pyrimidin-2-yl-1,2,4-triazol-3-yl)ethyl]urea] | ≥ 80 | – | – |
| C[C@H](NC(=S)Nc1ccc(Cl)c(C(F)(F)F)c1)c1ncnn1-c1ncccn1 [Example P15, 1-[4-chloro-3-(trifluoromethyl)phenyl]-3-[(1S)-1-(2-pyrimidin-2-yl-1,2,4-triazol-3-yl)ethyl]thiourea] | ≥ 80 | – | ≥ 80 |
| C[C@H](NC(=O)Nc1ccc(Cl)c(Cl)c1Cl)c1ncnn1-c1ncccn1 [Example P95, 1-[(1S)-1-(2-pyrimidin-2-yl-1,2,4-triazol-3-yl)ethyl]-3-(2,3,4-trichlorophenyl)urea] | ≥ 80 | – | – |
| C#CCOc1cc(NC(=O)N[C@@H](C)c2ncnn2-c2ncccn2)c(F)cc1Br [Example P203, 1-(4-bromo-2-fluoro-5-prop-2-ynoxy-phenyl)-3-[(1S)-1-(2-pyrimidin-2-yl-1,2,4-triazol-3-yl)ethyl]urea] | ≥ 80 | ≥ 80 | – |
| C[C@H](NC(=O)Nc1cc(Cl)c(Br)cc1F)c1ncnn1-c1ncccn1 [Example P373, 1-(4-bromo-5-chloro-2-fluoro-phenyl)-3-[(1S)-1-(2-pyrimidin-2-yl-1,2,4-triazol-3-yl)ethyl]urea] | ≥ 80 | – | ≥ 80 |
| C[C@H](NC(=O)Nc1ccc(Cl)c(C(F)(F)F)c1)c1ncnn1-c1ncccn1 [Example P131, 1-[4-chloro-3-(trifluoromethyl)phenyl]-3-[(1S)-1-(2-pyrimidin-2-yl-1,2,4-triazol-3-yl)ethyl]urea] | ≥ 80 | – | ≥ 80 |
| Cc1cc(Cl)c(Cl)cc1NC(=O)N[C@@H](C)c1ncnn1-c1ncccn1 [Example P191, 1-(4,5-dichloro-2-methyl-phenyl)-3-[(1S)-1-(2-pyrimidin-2-yl-1,2,4-triazol-3-yl)ethyl]urea] | ≥ 80 | ≥ 80 | – |
| CC(NC(=S)Nc1cc(C(F)(F)F)cc(C(F)(F)F)c1)c1ncnn1-c1ncccn1 (stereo not shown) [Example P3, 1-[3,5-bis(trifluoromethyl)phenyl]-3-[1-(2-pyrimidin-2-yl-1,2,4-triazol-3-yl)ethyl]thiourea] | ≥ 80 | – | – |
| C[C@H](NC(=O)Nc1cc(Oc2ccc(C(F)(F)F)cn2)c(Cl)cc1Cl)c1ncnn1-c1ncccn1 [Example P209, 1-[2,4-dichloro-5-[[5-(trifluoromethyl)-2-pyridyl]oxy]phenyl]-3-[(1S)-1-(2-pyrimidin-2-yl-1,2,4-triazol-3-yl)ethyl]urea] | ≥ 80 | ≥ 80 | – |
| COc1cc(OC)c(NC(=O)N[C@@H](C)c2ncnn2-c2ncccn2)cc1Cl [Example P387, 1-(5-chloro-2,4-dimethoxy-phenyl)-3-[(1S)-1-(2-pyrimidin-2-yl-1,2,4-triazol-3-yl)ethyl]urea] | ≥ 80 | – | – |
| C[C@H](NC(=O)Nc1cc2c(cc1Cl)OCO2)c1ncnn1-c1ncccn1 [Example P370, 1-(6-chloro-1,3-benzodioxol-5-yl)-3-[(1S)-1-(2-pyrimidin-2-yl-1,2,4-triazol-3-yl)ethyl]urea] | ≥ 80 | – | ≥ 80 |
| C[C@H](NC(=O)Nc1cc(Cl)c(Oc2ncc(C(F)(F)F)cc2Cl)c(Cl)c1)c1ncnn1-c1ncccn1 [Example P26, 1-[3,5-dichloro-4-[[3-chloro-5-(trifluoromethyl)-2-pyridyl]oxy]phenyl]-3-[(1S)-1-(2-pyrimidin-2-yl-1,2,4-triazol-3-yl)ethyl]urea] | ≥ 80 | ≥ 80 | – |
| CC(NC(=O)Nc1cnc(Br)cc1Br)c1nccnc1-c1ncccn1 (stereo not shown) [Example P242, 1-(4,6-dibromo-3-pyridyl)-3-[1-(3-pyrimidin-2-ylpyrazin-2-yl)ethyl]urea] | ≥ 80 | – | ≥ 80 |
| C[C@H](NC(=O)Nc1ccc(Br)cc1OC(F)F)c1ncnn1-c1ccc(C#N)cn1 [Example P254, 1-[4-bromo-2-(difluoromethoxy)phenyl]-3-[(1S)-1-[2-(5-cyano-2-pyridyl)-1,2,4-triazol-3-yl]ethyl]urea] | ≥ 80 | ≥ 80 | – |
| COC(=O)c1cc2c(cc1NC(=O)N[C@@H](C)c1ncnn1-c1ncccn1)OC(F)(F)O2 [Example P369, methyl 2,2-difluoro-6-[[(1S)-1-(2-pyrimidin-2-yl-1,2,4-triazol-3-yl)ethyl]carbamoylamino]-1,3-benzodioxole-5-carboxylate] | ≥ 80 | ≥ 80 | – |
| C[C@H](NC(=O)Nc1cc(Br)c(C(F)(F)F)cc1F)c1ncnn1-c1ncccn1 [Example P350, 1-[5-bromo-2-fluoro-4-(trifluoromethyl)phenyl]-3-[(1S)-1-(2-pyrimidin-2-yl-1,2,4-triazol-3-yl)ethyl]urea] | ≥ 80 | – | ≥ 80 |
| C[C@H](NC(=O)Nc1ccc(Cl)c(C(F)(F)F)c1)c1nccnc1-c1ncccn1 [Example P11, 1-[4-chloro-3-(trifluoromethyl)phenyl]-3-[(1S)-1-(3-pyrimidin-2-ylpyrazin-2-yl)ethyl]urea] | ≥ 80 | ≥ 80 | – |
| COc1cc(NC(=O)N[C@@H](C)c2ncnn2-c2ncccn2)c(Br)cc1Br [Example P200, 1-(2,4-dibromo-5-methoxy-phenyl)-3-[(1S)-1-(2-pyrimidin-2-yl-1,2,4-triazol-3-yl)ethyl]urea] | – | ≥ 80 | ≥ 80 |
| C[C@H](NC(=O)Nc1cc(F)c(Cl)cc1I)c1ncnn1-c1ncccn1 [Example P376, 1-(4-chloro-5-fluoro-2-iodo-phenyl)-3-[(1S)-1-(2-pyrimidin-2-yl-1,2,4-triazol-3-yl)ethyl]urea] | – | ≥ 80 | ≥ 80 |
